One experiment deals with HAP1 MTAP-deleted. As to the kind of experiment: SDMA in-cell western assay, HAP1 MTAP-deleted cell line. In kind it is cell-based. As to conditions: for IC50: Homo sapiens, HAP1 MTAP-deleted cell line; for MTAP Intact/Deleted Ratio: IC50 ratio HAP1 MTAP-intact / HAP1 MTAP-deleted. In outline: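 These are IC50 values from an in-cell western measuring SDMA. The HAP1 cells used carry no MTAP, in contrast to the isogenic partner line with endogenous MTAP expression.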

In experiment [1] the target is T1, PRMT5 (Homo sapiens, UniProt O14744).
T1 construct: purchased Viva (custom protein)
T1 sequence (O14744 whole entry): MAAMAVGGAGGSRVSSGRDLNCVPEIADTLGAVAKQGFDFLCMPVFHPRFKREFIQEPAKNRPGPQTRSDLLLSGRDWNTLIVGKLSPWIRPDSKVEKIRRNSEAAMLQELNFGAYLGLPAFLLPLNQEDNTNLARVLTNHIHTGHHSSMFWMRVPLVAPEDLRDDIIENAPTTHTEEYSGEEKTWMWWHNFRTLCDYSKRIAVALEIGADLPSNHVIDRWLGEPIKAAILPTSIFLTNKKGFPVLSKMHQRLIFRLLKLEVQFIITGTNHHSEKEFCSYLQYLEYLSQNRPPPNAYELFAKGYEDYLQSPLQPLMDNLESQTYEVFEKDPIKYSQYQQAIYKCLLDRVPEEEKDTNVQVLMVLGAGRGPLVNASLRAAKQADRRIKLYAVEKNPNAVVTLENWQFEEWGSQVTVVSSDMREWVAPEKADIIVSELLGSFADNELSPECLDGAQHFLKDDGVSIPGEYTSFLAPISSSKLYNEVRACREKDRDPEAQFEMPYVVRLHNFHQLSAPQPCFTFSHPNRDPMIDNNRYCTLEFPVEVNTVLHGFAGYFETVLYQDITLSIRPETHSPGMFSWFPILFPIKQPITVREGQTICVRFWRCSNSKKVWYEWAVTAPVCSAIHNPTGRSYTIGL
T1 sequence (Q9BQA1 whole entry partner): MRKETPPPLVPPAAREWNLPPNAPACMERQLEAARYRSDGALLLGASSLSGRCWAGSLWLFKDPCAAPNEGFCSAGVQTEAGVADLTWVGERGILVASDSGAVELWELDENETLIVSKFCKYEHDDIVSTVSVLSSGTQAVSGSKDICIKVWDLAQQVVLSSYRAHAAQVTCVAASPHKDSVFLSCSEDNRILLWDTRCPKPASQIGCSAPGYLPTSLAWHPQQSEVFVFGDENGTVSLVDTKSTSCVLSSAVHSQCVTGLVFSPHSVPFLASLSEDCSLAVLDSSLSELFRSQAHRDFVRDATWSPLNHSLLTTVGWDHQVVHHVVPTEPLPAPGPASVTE
In words: PRMT5 IC50 assay in the presence of MTA as cofactor. In kind it is biochemical. As to conditions: for IC50: PRMT5, MTA as cofactor; for SAM/MTA Ratio: ratio between Ki in the presence of SAM and Ki in the presence of MTA. In outline: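 Potency against PRMT5 is compared across cofactor states, where IC50 equals Ki×1.5 with SAM present and Ki×13.5 with MTA present.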

Experiment [2] has as its target T1, PRMT5. As to the kind of experiment: PRMT5 IC50 assay with no cofactor. In kind it is biochemical. As to conditions: read-out: No Co-factor IC50. A digest of the protocol: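 Values reflect IC50 (μM) on human PRMT5 under three cofactor states. Selectivity is derived as the quotient of SAM-state Ki over MTA-state Ki, with each Ki obtained from its IC50.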
Experiment [3] has as its target T1, PRMT5. As to the kind of experiment: PRMT5 IC50 assay in the presence of SAM as cofactor. In kind it is biochemical. A digest of the protocol: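 Three cofactor conditions tested for PRMT5 inhibition: none, MTA and SAM, each giving an IC50. For conversion to Ki, the MTA-condition IC50 is divided by 13.5 and the SAM-condition IC50 by 1.5, and the two Ki values are expressed as a SAM/MTA ratio.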

For the next experiment, the system named is HAP1 MTAP-intact. In words: SDMA in-cell western assay, HAP1 MTAP-intact cell line. In kind it is cell-based. As to conditions: Homo sapiens. A digest of the protocol:
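Potency reflects cellular SDMA reduction, detected by in-cell western, in HAP1 cells with or without MTAP (endogenous expression versus null).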

For the compound `CC(=O)N1CC(Nc2cc(C(=O)NC[C@H](O)CN3CCc4c(ccc(OCc5cnco5)c4Cl)C3)nc(C(C)(C)C)n2)C1` [Compound 360, (S)-6-((1-acetylazetidin-3-yl)amino)-2-(tert-butyl)-N-(3-(5-chloro-6-(oxazol-5-ylmethoxy)-3,4-dihydroisoquinolin-2(1H)-yl)-2-hydroxypropyl)pyrimidine-4-carboxamide], the half-maximal inhibitory concentration (IC50) with HAP1 MTAP-deleted was < 1000 nM; at PRMT5 [1], 50 to 500 nM; at PRMT5 [2] it was 500 to 5000 nM; on PRMT5 [3], 50 to 500 nM; with HAP1 MTAP-intact, ≥ 10000 nM. The “MTAP Intact/Deleted Ratio” value in the experiment on HAP1 MTAP-deleted was “A* (an IC50 ratio greater than or equal to 10 fold between the IC50 in the HAP1 MTAP-intact cell line and the HAP1 MTAP-deleted cell line)”. The “SAM/MTA Ratio” value on PRMT5 [1] was “A (a Ki ratio greater than or equal to 10 fold between the Ki in the presence of SAM and the Ki in the presence of MTA)”.
Turning to `O=C(NC[C@H](O)CN1CCc2c(ccc(OCc3cnco3)c2Br)C1)c1cc(NC2CCC2)ncn1` [Compound 361, (S)—N-(3-(5-bromo-6-(oxazol-5-ylmethoxy)-3,4-dihydroisoquinolin-2(1H)-yl)-2-hydroxypropyl)-6-(cyclobutylamino)pyrimidine-4-carboxamide], the IC50 with HAP1 MTAP-deleted is ≥ 10000 nM; on PRMT5 [1] it was 500 to 5000 nM; at PRMT5 [2], ≥ 5000 nM; at PRMT5 [3] it was 500 to 5000 nM; in the experiment on HAP1 MTAP-intact, ≥ 10000 nM. In addition, in the experiment with HAP1 MTAP-deleted, the “MTAP Intact/Deleted Ratio” value was “C* (an IC50 ratio of less than 3 fold between the IC50 in the HAP1 MTAP-intact cell line and the HAP1 MTAP-deleted cell line)”. Also, the “SAM/MTA Ratio” value on PRMT5 [1] was “A (a Ki ratio greater than or equal to 10 fold between the Ki in the presence of SAM and the Ki in the presence of MTA)”.
As for `O=C(NC[C@H](O)CN1CCc2cc(OCc3cnco3)cc(F)c2C1)c1ccnc(NC2CCC2)c1` [Compound 362, 2-(cyclobutylamino)-N-[(2S)-3-[8-fluoro-6-(oxazol-5-ylmethoxy)-3,4-dihydro-1H-isoquinolin-2-yl]-2-hydroxy-propyl]pyridine-4-carboxamide], the IC50 is 1000 to 10000 nM in the experiment on HAP1 MTAP-deleted; 50 to 500 nM at PRMT5 [1]; ≥ 5000 nM at PRMT5 [2]; 500 to 5000 nM at PRMT5 [3]; < 1000 nM in the experiment with HAP1 MTAP-intact. The “MTAP Intact/Deleted Ratio” value with HAP1 MTAP-deleted was “C* (an IC50 ratio of less than 3 fold between the IC50 in the HAP1 MTAP-intact cell line and the HAP1 MTAP-deleted cell line)”. Besides, at PRMT5 [1], the “SAM/MTA Ratio” value was “A (a Ki ratio greater than or equal to 10 fold between the Ki in the presence of SAM and the Ki in the presence of MTA)”.
Take `O=C(NC[C@H](O)CN1CCc2cc(OCc3cnco3)c(F)c(F)c2C1)c1ccnc(NC2CCC2)c1` [Compound 364, 2-(cyclobutylamino)-N-[(2S)-3-[7,8-difluoro-6-(oxazol-5-ylmethoxy)-3,4-dihydro-1H-isoquinolin-2-yl]-2-hydroxy-propyl]pyridine-4-carboxamide]: the IC50 in the experiment on HAP1 MTAP-deleted is 1000 to 10000 nM; at PRMT5 [1] it was 50 to 500 nM; on PRMT5 [2], ≥ 5000 nM; at PRMT5 [3], 50 to 500 nM; with HAP1 MTAP-intact, ≥ 10000 nM. For the same compound, in the experiment on HAP1 MTAP-deleted, the “MTAP Intact/Deleted Ratio” value is “C* (an IC50 ratio of less than 3 fold between the IC50 in the HAP1 MTAP-intact cell line and the HAP1 MTAP-deleted cell line)”. Further, the “SAM/MTA Ratio” value on PRMT5 [1] is “A (a Ki ratio greater than or equal to 10 fold between the Ki in the presence of SAM and the Ki in the presence of MTA)”.
On to `CC(=O)N1CC(Nc2cc(C(=O)NC[C@H](O)CN3CCc4cc(OCc5cnco5)ccc4C3)nc(N3CCCCC3)n2)C1` [Compound 365, (S)-6-((1-acetylazetidin-3-yl)amino)-N-(2-hydroxy-3-(6-(oxazol-5-ylmethoxy)-3A-dihydroisoquinolin-2(1H)-yl)propyl)-2-(piperidin-1-yl)pyrimidine-4-carboxamide], for which the IC50 in the experiment on HAP1 MTAP-deleted was < 1000 nM; on PRMT5 [1], < 50 nM; at PRMT5 [2], 500 to 5000 nM; on PRMT5 [3], 50 to 500 nM; with HAP1 MTAP-intact it was 1000 to 10000 nM. Besides, in the experiment with HAP1 MTAP-deleted, the “MTAP Intact/Deleted Ratio” value was “B* (an IC50 ratio greater than or equal to 3 fold but lower than 10 fold between the IC50 in the HAP1 MTAP-intact cell line and the HAP1 MTAP-deleted cell line)”. On PRMT5 [1], the “SAM/MTA Ratio” value was “A (a Ki ratio greater than or equal to 10 fold between the Ki in the presence of SAM and the Ki in the presence of MTA)”.
Regarding `O=C(NC[C@H](O)CN1CCc2c(ccc(OCc3cnco3)c2Cl)C1)c1ccnc(NC2CCN(C(=O)C3CC3)CC2)c1` [Compound 366, (S)—N-(3-(5-chloro-6-(oxazol-5-ylmethoxy)-3N-dihydroisoquinolin-2(1H)-yl)-2-hydroxypropyl)-2-((1-(cyclopropanecarbonyl)piperidin-4-yl)amino)isonicotinamide], the IC50 with HAP1 MTAP-deleted is 1000 to 10000 nM; on PRMT5 [1], 50 to 500 nM; on PRMT5 [2], 500 to 5000 nM; at PRMT5 [3], 50 to 500 nM; with HAP1 MTAP-intact, ≥ 10000 nM. The “MTAP Intact/Deleted Ratio” value in the experiment with HAP1 MTAP-deleted was “B* (an IC50 ratio greater than or equal to 3 fold but lower than 10 fold between the IC50 in the HAP1 MTAP-intact cell line and the HAP1 MTAP-deleted cell line)”. On PRMT5 [1], the “SAM/MTA Ratio” value is “A (a Ki ratio greater than or equal to 10 fold between the Ki in the presence of SAM and the Ki in the presence of MTA)”.
`Cc1ncoc1COc1ccc2c(c1C)CCN(C[C@@H](O)CNC(=O)c1cc(NC3CCCC3)ncn1)C2` [Compound 367, 6-(cyclopentylamino)-N-[(2S)-2-hydroxy-3-{5-methyl-6-[(4-methyl-1,3-oxazol-5-yl)methoxy]-1,2,3,4-tetrahydroisoquinolin-2-yl}propyl]pyrimidine-4-carboxamide]: the IC50 is ≥ 10000 nM in the experiment on HAP1 MTAP-deleted; 50 to 500 nM on PRMT5 [1]; ≥ 5000 nM at PRMT5 [2]; 500 to 5000 nM on PRMT5 [3]; ≥ 10000 nM in the experiment on HAP1 MTAP-intact. Also, in the experiment with HAP1 MTAP-deleted, the “MTAP Intact/Deleted Ratio” value was “C* (an IC50 ratio of less than 3 fold between the IC50 in the HAP1 MTAP-intact cell line and the HAP1 MTAP-deleted cell line)”. Further, the “SAM/MTA Ratio” value on PRMT5 [1] was “A (a Ki ratio greater than or equal to 10 fold between the Ki in the presence of SAM and the Ki in the presence of MTA)”.
For `Cc1ncoc1COc1ccc2c(c1C)CCN(C[C@@H](O)CNC(=O)c1cc(NC3CCCCC3)ncn1)C2` [Compound 368, 6-(cyclohexylamino)-N-[(2S)-2-hydroxy-3-{5-methyl-6-[(4-methyl-1,3-oxazol-5-yl)methoxy]-1,2,3,4-tetrahydroisoquinolin-2-yl}propyl]pyrimidine-4-carboxamide], the IC50 in the experiment with HAP1 MTAP-deleted is ≥ 10000 nM; on PRMT5 [1], 50 to 500 nM; on PRMT5 [2] it was ≥ 5000 nM; at PRMT5 [3] it was 500 to 5000 nM; in the experiment with HAP1 MTAP-intact, ≥ 10000 nM. Also, the “MTAP Intact/Deleted Ratio” value in the experiment on HAP1 MTAP-deleted was “C* (an IC50 ratio of less than 3 fold between the IC50 in the HAP1 MTAP-intact cell line and the HAP1 MTAP-deleted cell line)”. The “SAM/MTA Ratio” value on PRMT5 [1] is “A (a Ki ratio greater than or equal to 10 fold between the Ki in the presence of SAM and the Ki in the presence of MTA)”.
With `COCCN(C)c1cc(C(=O)NC[C@H](O)CN2CCc3cc(OCc4cnco4)ccc3C2)cc(NC2CCC2)n1` [Compound 369, (S)-2-(cyclobutylamino)-N-(2-hydroxy-3-(6-(oxazol-5-ylmethoxy)-3,4-dihydroisoquinolin-2(1H)-yl)propyl)-6-((2-methoxyethyl)(methyl)amino)isonicotinamide], the half-inhibitory concentration (IC50) in the experiment on HAP1 MTAP-deleted is ≥ 10000 nM; on PRMT5 [1], 50 to 500 nM; on PRMT5 [2] it was 500 to 5000 nM; on PRMT5 [3], 500 to 5000 nM; in the experiment with HAP1 MTAP-intact, 1000 to 10000 nM. The “MTAP Intact/Deleted Ratio” value in the experiment with HAP1 MTAP-deleted was “C* (an IC50 ratio of less than 3 fold between the IC50 in the HAP1 MTAP-intact cell line and the HAP1 MTAP-deleted cell line)”. In addition, the “SAM/MTA Ratio” value on PRMT5 [1] is “A (a Ki ratio greater than or equal to 10 fold between the Ki in the presence of SAM and the Ki in the presence of MTA)”.
`CC(C)(C)N1CCN(c2nc(NC3COC3)cc(C(=O)NC[C@H](O)CN3CCc4c(ccc(OCc5cnco5)c4Cl)C3)n2)CC1` [Compound 370, (S)-2-(4-(tert-butyl)piperazin-1-yl)-N-(3-(5-chloro-6-(oxazol-5-ylmethoxy)-3N-dihydroisoquinolin-2(1H)-yl)-2-hydroxypropyl)-6-(oxetan-3-ylamino)pyrimidine-4-carboxamide]: the IC50 with HAP1 MTAP-deleted was 1000 to 10000 nM; on PRMT5 [1], 50 to 500 nM; on PRMT5 [2], ≥ 5000 nM; on PRMT5 [3], 50 to 500 nM; with HAP1 MTAP-intact, ≥ 10000 nM. Moreover, the “MTAP Intact/Deleted Ratio” value in the experiment on HAP1 MTAP-deleted was “C* (an IC50 ratio of less than 3 fold between the IC50 in the HAP1 MTAP-intact cell line and the HAP1 MTAP-deleted cell line)”. The “SAM/MTA Ratio” value at PRMT5 [1] was “A (a Ki ratio greater than or equal to 10 fold between the Ki in the presence of SAM and the Ki in the presence of MTA)”.
For the compound `Cc1ncoc1COc1ccc2c(c1C)CCN(C[C@@H](O)CNC(=O)c1cc(NC3CCC3)ncn1)C2` [Compound 371, 6-(cyclobutylamino)-N-[(2S)-2-hydroxy-3-{5-methyl-6-[(4-methyl-1,3-oxazol-5-yl)methoxy]-1,2,3,4-tetrahydroisoquinolin-2-yl}propyl]pyrimidine-4-carboxamide], the IC50 was < 1000 nM with HAP1 MTAP-deleted; 50 to 500 nM at PRMT5 [1]; ≥ 5000 nM on PRMT5 [2]; 500 to 5000 nM at PRMT5 [3]; ≥ 10000 nM in the experiment with HAP1 MTAP-intact. For the same compound, the “MTAP Intact/Deleted Ratio” value with HAP1 MTAP-deleted was “A* (an IC50 ratio greater than or equal to 10 fold between the IC50 in the HAP1 MTAP-intact cell line and the HAP1 MTAP-deleted cell line)”. The “SAM/MTA Ratio” value on PRMT5 [1] is “A (a Ki ratio greater than or equal to 10 fold between the Ki in the presence of SAM and the Ki in the presence of MTA)”.

The IC50 is the point on the concentration scale where inhibition reaches its midpoint.

Values taken from patent US11986471B2, “Compounds and methods of use” (Tango Therapeutics, Inc., priority 2018, dated 2024).
